Test results from the supplement of paper PMC4314810.
± gives the standard deviation of the averaged measurements.

Test system: MCF7
Experiment: HRG-induced Akt activation (dPAkt = log2 pAkt/Akt HRG-stimulated minus log2 pAkt/Akt basal) (log2 ratio difference); higher = stronger HRG-induced Akt(T308) phosphorylation
Conditions: miRNA mimic concentration 10 nM; time after transfection 72 h; heregulin 10 ng/ml; stimulation time 1 h
Method in brief: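 MCF7 cells ([…], 96-well plates) carrying one of 879 miRNA mimics, transfected at 10 nM final with Lipofectamine RNAiMax in two biological replicates, were stimulated after 72 h with 10 ng/ml heregulin-beta1 for 1 h or left unstimulated. Phospho-Akt(T308) and total Akt in cells fixed with 4% PFA were read by In-Cell Western on an Odyssey and corrected for column-wise fixation decay to give log2(pAkt/Akt). Heregulin-induced Akt activation is the replicate mean of stimulated minus unstimulated ratios.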

Sequence | HRG-induced Akt activation (log2)
AAAAACUGAGACUACUUUUGCA | 1.33 ± 0.15
AAAAACUGUAAUUACUUUU | 1.15 ± 0.3
AAAACCGUCUAGUUACAGUUGU | 1.26 ± 0.26
AAAACGGUGAGAUUUUGUUUU | 1.75 ± 0.2
AAAACUGUAAUUACUUUUGUAC | 1.26 ± 0.31
AAAAGCUGGGUUGAGAGGA | 1.507 ± 0.011
AAAAGCUGGGUUGAGAGGGCAA | 1.61 ± 0.092
AAAAGCUGGGUUGAGAGGGCGA | 1.44 ± 0.13
AAAAGCUGGGUUGAGAGGGU | 1.89 ± 0.17
AAAAGUAAUCGCGGUUUUUGUC | 1.2 ± 0.063
AAAAGUAAUUGCGAGUUUUACC | 1.34 ± 0.091
AAAAGUAAUUGCGGAUUUUGCC | 0.977 ± 0.53
AAAAGUAAUUGCGGUCUUUGGU | 1.32 ± 0.034
AAAAGUAAUUGCGGUUUUUGCC | 1.53 ± 0.17
AAAAGUAAUUGUGGUUUUGGCC | 1.15 ± 0.15
AAAAGUAAUUGUGGUUUUUGCC | 1.07 ± 0.085
AAAAGUACUUGCGGAUUUUGCU | 1.58 ± 0.21
AAAAGUAUUUGCGGGUUUUGUC | 1.58 ± 0.098
AAAAGUGCUUACAGUGCAGGUAG | 1.2 ± 0.069
AAAAUGGUGCCCUAGUGACUACA | 1.9 ± 0.43
AAAAUGGUUCCCUUUAGAGUGU | 1.21 ± 0.31
AAACAAACAUGGUGCACUUCUU | 1.48 ± 0.08
AAACAUUCGCGGUGCACUUCUU | 1.84 ± 0.035
AAACCGUUACCAUUACUGAGUU | 1.22 ± 0.2

Sequence | HRG-induced Akt activation (log2)
AAACCUGUGUUGUUCAAGAGUC | 0.883 ± 0.023
AAACUACUGAAAAUCAAAGAU | 1.76 ± 0.11
AAACUCUACUUGUCCUUCUGAGU | 0.945 ± 0.39
AAAGACAUAGGAUAGAGUCACCUC | 1.9 ± 0.072
AAAGCGCUUCCCUUCAGAGUG | 1.53 ± 0.33
AAAGGAUUCUGCUGUCGGUCCCACU | 1.63 ± 0.2
AAAGUAGCUGUACCAUUUGC | 1.44 ± 0.56
AAAGUGCAUCCUUUUAGAGGUU | 0.411 ± 0.64
AAAGUGCAUCCUUUUAGAGUGU | 0.756 ± 0.11
AAAGUGCAUCUUUUUAGAGGAU | 0.724 ± 0.058
AAAGUGCUGCGACAUUUGAGCGU | 0.644 ± 0.26
AAAGUGCUUCCCUUUGGACUGU | 0.806 ± 0.049
AAAGUGCUUCCUUUUAGAGGG | 0.928 ± 0.12
AAAGUGCUUCCUUUUAGAGGGU | 0.665 ± 0.11
AAAGUGCUUCCUUUUUGAGGG | 0.963 ± 0.46
AAAGUGCUUCUCUUUGGUGGGU | 0.92 ± 0.047
AAAGUUCUGAGACACUCCGACU | 1.35 ± 0.082
AAAUCUCUGCAGGCAAAUGUGA | 1.19 ± 0.11
AAAUUAUUGUACAUCGGAUGAG | 1.48 ± 0.61
AACAAUAUCCUGGUGCUGAGUG | 1.79 ± 0.41
AACACACCUAUUCAAGGAUUCA | 1.11 ± 0.37
AACACACCUGGUUAACCUCUUU | 1.23 ± 0.54
AACAGGUGACUGGUUAGACAA | 2.3 ± 0.13
AACAUAGAGGAAAUUCCACGU | 1.17 ± 0.5

Sequence | HRG-induced Akt activation (log2)
AACAUCACAGCAAGUCUGUGCU | 1.32 ± 0.38
AACAUUCAACCUGUCGGUGAGU | 2.38 ± 0.33
AACAUUCAACGCUGUCGGUGAGU | 1.71 ± 0.13
AACAUUCAUUGCUGUCGGUGGGU | 1.77 ± 0.45
AACAUUCAUUGUUGUCGGUGGGU | 2.236 ± 0.017
AACCAGCACCCCAACUUUGGAC | 2.3 ± 0.14
AACCAUCGACCGUUGAGUGGAC | 0.92 ± 0.14
AACCCGUAGAUCCGAACUUGUG | 1.11 ± 0.13
AACCCGUAGAUCCGAUCUUGUG | 0.985 ± 0.36
AACGCACUUCCCUUUAGAGUGU | 1.23 ± 0.16
AACGCCAUUAUCACACUAAAUA | 1.14 ± 0.04
AACUGGAUCAAUUAUAGGAGUG | 1.79 ± 0.16
AACUGGCCCUCAAAGUCCCGCU | 2.215 ± 0.013
AACUGGCCUACAAAGUCCCAGU | 2.21 ± 0.14
AACUGUUUGCAGAGGAAACUGA | 1.816 ± 0.014
AAGACGGGAGGAAAGAAGGGAG | 1.22 ± 0.24
AAGAUGUGGAAAAAUUGGAAUC | 1.68 ± 0.17
AAGCAGCUGCCUCUGAGGC | 2.16 ± 0.21
AAGCAUUCUUUCAUUGGUUGG | 1.4 ± 0.014
AAGCCCUUACCCCAAAAAGCAU | 1.6 ± 0.26
AAGCCCUUACCCCAAAAAGUAU | 1.73 ± 0.12
AAGCCUGCCCGGCUCCUCGGG | 1.81 ± 0.26
AAGCUGCCAGUUGAAGAACUGU | 1.23 ± 0.26
AAGGAGCUCACAGUCUAUUGAG | 1.97 ± 0.2

Sequence | HRG-induced Akt activation (log2)
AAGGAGCUUACAAUCUAGCUGGG | 1.87 ± 0.21
AAGGCAGGGCCCCCGCUCCCC | 1.14 ± 0.77
AAGUAGUUGGUUUGUAUGAGAUGGUU | 1.424 ± 0.014
AAGUGAUCUAAAGGCCUACAU | 1.67 ± 0.14
AAGUGCCGCCAUCUUUUGAGUGU | 0.888 ± 0.34
AAGUGCCUCCUUUUAGAGUGUU | 0.982 ± 0.27
AAGUGCUGUCAUAGCUGAGGUC | 0.879 ± 0.58
AAGUGCUUCCUUUUAGAGGGUU | 0.817 ± 0.012
AAGUGUGCAGGGCACUGGU | 2.33 ± 0.23
AAGUUCUGUUAUACACUCAGGC | 1.154 ± 0.01
AAUAAUACAUGGUUGAUCUUU | 1.38 ± 0.066
AAUAUAACACAGAUGGCCUGU | 1.36 ± 0.25
AAUAUUAUACAGUCAACCUCU | 1.21 ± 0.51
AAUCACUAACCACACGGCCAGG | 1.79 ± 0.65
AAUCAUACACGGUUGACCUAUU | 1.41 ± 0.42
AAUCAUACAGGGACAUCCAGUU | 1.86 ± 0.16
AAUCAUGUGCAGUGCCAAUAUG | 1.51 ± 0.15
AAUCCUUGGAACCUAGGUGUGAGU | 2.15 ± 0.11
AAUCCUUUGUCCCUGGGUGAGA | 1.76 ± 0.094
AAUCGUACAGGGUCAUCCACUU | 1.46 ± 0.051
AAUGACACGAUCACUCCCGUUGA | 1.48 ± 0.35
AAUGCACCCGGGCAAGGAUUCU | 1.91 ± 0.056
AAUGCACCUGGGCAAGGAUUCA | 1.43 ± 0.42
AAUGGAUUUUUGGAGCAGG | 2.12 ± 0.2

Sequence | HRG-induced Akt activation (log2)
AAUGGCGCCACUAGGGUUGUG | 1.42 ± 0.35
AAUUGCACGGUAUCCAUCUGUA | 1.15 ± 0.15
AAUUGCACUUUAGCAAUGGUGA | 1.14 ± 0.04
ACAAAGUGCUUCCCUUUAGAGU | 1.75 ± 0.12
ACAAAGUGCUUCCCUUUAGAGUGU | 1.41 ± 0.53
ACACAGGGCUGUUGUGAAGACU | 1.74 ± 0.1
ACAGAUUCGAUUCUAGGGGAAU | 1.75 ± 0.2
ACAGCAGGCACAGACAGGCAGU | 1.75 ± 0.28
ACAGGUGAGGUUCUUGGGAGCC | 1.32 ± 0.087
ACAGUAGAGGGAGGAAUCGCAG | 1.42 ± 0.22
ACAGUAGUCUGCACAUUGGUUA | 1.692 ± 0.0034
ACAGUCUGCUGAGGUUGGAGC | 1.54 ± 0.044
ACCACUGACCGUUGACUGUACC | 1.81 ± 0.74
ACCAGGAGGCUGAGGCCCCU | 1.68 ± 0.1
ACCAUCGACCGUUGAUUGUACC | 1.35 ± 0.22
ACCCGUCCCGUUCGUCCCCGGA | 1.513 ± 0.0044
ACCCUAUCAAUAUUGUCUCUGC | 1.33 ± 0.23
ACCGUGCAAAGGUAGCAUA | 1.89 ± 0.11
ACCGUGGCUUUCGAUUGUUACU | 1.58 ± 0.11
ACCUGGCAUACAAUGUAGAUUU | 1.81 ± 0.29
ACCUUCUUGUAUAAGCACUGUGCUAAA | 1.54 ± 0.13
